Assay [1] deals with Mycobacterium tuberculosis (strain H37RV). Kind of assay: In-vitro method for testing compounds against M. tuberculosis (resazurin growth inhibition, MIC). The note with it: MIC data representing IC90's, 7 days incubation, resazurin fluorescence. Format: cell-based. On the technique in general: The colour change of resazurin is a common sign of viable cells or microbes.
Another assay has as its system M. Smegmatis ATCC607. The assay is described as follows: In-vitro method for testing compounds for anti-bacterial activity against strain M. smegmatis ATCC607 (Alamar Blue growth inhibition). Format: cell-based. As to conditions: M. smegmatis ATCC607; pIC50 = -logIC50, IC50 in M, 50% inhibitory concentration for bacterial growth; 48 hours incubation. As to the method: C.2. In-vitro Method for Testing Compounds for Anti-bacterial Activity Against Strain M. Smegmatis ATCC607. […] Subsequently, stock solutions (7.8×final test concentration) of compounds were added in 45 μl volumes to a series of duplicate wells in column 2 so as to allow evaluation of their effects on bacterial growth. Serial five-fold dilutions (45 μl in 180 μl) were made directly in the microtiter plates from column 2 to 11 using a customised robot system (Zymark Corp., Hopkinton, Mass.). Pipette tips were changed after every 3 dilutions to minimize pipetting errors with high hydrophobic compounds. Untreated control samples with (column 1) and without (column 12) inoculum were included in each microtiter plate. Approximately 250 CFU per well of bacteria inoculum, in a volume of 100 μl in 2.8×Mueller-Hinton broth medium, was added to the rows […]. The same volume of broth medium without inoculum was added to column 12 in row A to H. The cultures were incubated at 37° C. for 48 hours in a humidified 5% CO2 atmosphere (incubator with open air valve and continuous ventilation). At the end of incubation, two days after inoculation, the bacterial growth was quantitated fluorometrically. Therefore Alamar Blue (10×) was added to all wells in a volume of 20 μl and plates were incubated for another 2 hours at […] The fluorescence was read in a computer-controlled fluorometer (Cytofluor, Biosearch) at an excitation wavelength of 530 nm and an emission wavelength of 590 nm (gain 30). The % growth inhibition achieved by the compounds was calculated according to standard methods.

For `COc1nc2ccc(Br)cc2cc1C(c1ccccc1)C(O)(CCN(C)C)c1cccs1` (single isomer, unassigned) [Compound 20], the MIC in assay [1] amounted to 40.63 microgram/ml. For the same molecule, in the assay with M. Smegmatis ATCC607, the pIC50 (as a rule, the IC50 on a negative log10 scale, so that one unit is a factor of ten) is 5.9.

Turning to `COc1nc2ccc(Br)cc2cc1C(c1ccccc1)C(O)(CCN(C)C)c1cccs1` (single isomer, unassigned) [Compound 21], the MIC in assay [1] is given as 16.17 microgram/ml. This molecule also displayed a pIC50 in the assay with M. Smegmatis ATCC607 of 5.4.

As for `COc1nc2ccc(C)cc2cc1C(c1ccccc1)C(O)(CCN(C)C)c1ccccc1` (single isomer, unassigned) [Compound 22], in assay [1], the MIC is recorded as 1.11 microgram/ml. In addition, the pIC50 in the assay with M. Smegmatis ATCC607 worked out at 7.2.

In assay [1], `COc1nc2ccc(C)cc2cc1C(c1ccccc1)C(O)(CCN(C)C)c1ccccc1` (single isomer, unassigned) [Compound 23] returned an MIC of 8.79 microgram/ml. The pIC50 in the assay on M. Smegmatis ATCC607 came out at 6.4.

For the molecule `COc1nc2ccc(Br)cc2cc1C(c1ccccc1)C(O)(CCN(C)C)c1ccsc1` (single isomer, unassigned) [Compound 24], the MIC in assay [1] was 1.62 microgram/ml. Besides, the pIC50 with M. Smegmatis ATCC607 is given as 7.2.

For `COc1nc2ccc(Br)cc2cc1C(c1ccccc1)C(O)(CCN(C)C)c1ccsc1` (single isomer, unassigned) [Compound 25], the MIC in assay [1] came out at 20.36 microgram/ml. Further, the negative logarithm of the IC50 (pIC50) with M. Smegmatis ATCC607 turned out to be 5.2.

In turn, `COc1nc2ccc(-c3ccccc3)cc2cc1C(c1ccccc1)C(O)(CCN(C)C)c1ccccc1` (single isomer, unassigned) [Compound 26] gave an MIC in assay [1] of 1.00 microgram/ml. For the same molecule, the pIC50 in the assay with M. Smegmatis ATCC607 is listed as 7.2.

Regarding `COc1nc2ccc(-c3ccccc3)cc2cc1C(c1ccccc1)C(O)(CCN(C)C)c1ccccc1` (single isomer, unassigned) [Compound 27], the MIC in assay [1] was found to be 7.97 microgram/ml. For the same molecule, in the assay on M. Smegmatis ATCC607, the pIC50 turned out to be 5.9.

In assay [1], `COc1nc2ccc(F)cc2cc1C(c1ccccc1)C(O)(CCN(C)C)c1ccccc1` (single isomer, unassigned) [Compound 28] returned an MIC of 1.41 microgram/ml. The pIC50 in the assay on M. Smegmatis ATCC607 amounted to 7.3.

`COc1nc2ccc(F)cc2cc1C(c1ccccc1)C(O)(CCN(C)C)c1ccccc1` (single isomer, unassigned) [Compound 29] returned an MIC in assay [1] of 44.46 microgram/ml. The pIC50 in the assay on M. Smegmatis ATCC607 worked out at 5.9.

The molecule `COc1nc2ccc(Cl)cc2cc1C(c1ccccc1)C(O)(CCN(C)C)c1ccccc1` (single isomer, unassigned) [Compound 30] yielded an MIC in assay [1] of 1.46 microgram/ml. In addition, in the assay on M. Smegmatis ATCC607, the pIC50 stood at 7.8.

On to `COc1nc2ccc(Cl)cc2cc1C(c1ccccc1)C(O)(CCN(C)C)c1ccccc1` (single isomer, unassigned) [Compound 31], for which the MIC in assay [1] is 7.31 microgram/ml. This molecule returned a pIC50 with M. Smegmatis ATCC607 of 5.8.

In turn, `CSc1nc2ccc(Br)cc2cc1C(c1ccccc1)C(O)(CCN(C)C)c1ccccc1` (single isomer, unassigned) [Compound 32] displayed an MIC in assay [1] of 0.33 microgram/ml. The molecule further gave a pIC50 in the assay with M. Smegmatis ATCC607 of 7.4.

`CSc1nc2ccc(Br)cc2cc1C(c1ccccc1)C(O)(CCN(C)C)c1ccccc1` (single isomer, unassigned) [Compound 33] returned an MIC in assay [1] of 8.27 microgram/ml. The molecule further had a pIC50 in the assay with M. Smegmatis ATCC607 of 6.0.

The molecule `COc1ccc2nc(OC)c(C(c3ccccc3)C(O)(CCN(C)C)c3ccccc3)cc2c1` (single isomer, unassigned) [Compound 34] returned an MIC in assay [1] of 45.66 microgram/ml. The pIC50 in the assay on M. Smegmatis ATCC607 is 5.1.

As to `COc1ccc2nc(OC)c(C(c3ccccc3)C(O)(CCN(C)C)c3ccccc3)cc2c1` (single isomer, unassigned) [Compound 35], the MIC in assay [1] was 1.82 microgram/ml. The pIC50 in the assay on M. Smegmatis ATCC607 is 6.8.

With `COc1nc2ccc(Br)cc2cc1C(c1ccc(Cl)cc1)C(O)(CCN(C)C)c1ccccc1` (single isomer, unassigned) [Compound 36], the MIC in assay [1] was 5.40 microgram/ml. The same molecule had a pIC50 in the assay on M. Smegmatis ATCC607 of 6.4.

Molecule `COc1nc2ccc(Br)cc2cc1C(c1ccc(Cl)cc1)C(O)(CCN(C)C)c1ccccc1` (single isomer, unassigned) [Compound 37] had an MIC in assay [1] of 0.34 microgram/ml. The pIC50 with M. Smegmatis ATCC607 is 7.9.

`COc1nc2ccccc2cc1C(c1ccccc1)C(O)(CCN(C)C)c1ccccc1` (single isomer, unassigned) [Compound 40] came in with an MIC in assay [1] of 21.38 microgram/ml. The molecule also gave a pIC50 in the assay on M. Smegmatis ATCC607 of 4.7.

As for `COc1nc2ccccc2cc1C(c1ccccc1)C(O)(CCN(C)C)c1ccccc1` (single isomer, unassigned) [Compound 41], in assay [1], the MIC was determined as 8.51 microgram/ml. The pIC50 in the assay on M. Smegmatis ATCC607 is 5.9.

Turning to `COc1nc2ccccc2cc1C(c1ccccc1)C(C)(O)CCN(C)C` (single isomer, unassigned) [Compound 42], the MIC in assay [1] was 44.34 microgram/ml. The same molecule returned a pIC50 in the assay with M. Smegmatis ATCC607 of 6.3.

`COc1nc2ccccc2cc1C(c1ccccc1)C(C)(O)CCN(C)C` (single isomer, unassigned) [Compound 43] displayed an MIC in assay [1] of 44.34 microgram/ml. This molecule gave a pIC50 in the assay on M. Smegmatis ATCC607 of 4.4.

On to `COc1nc2ccc(Br)cc2cc1C(c1ccccc1)C(O)(CN(C)C)c1ccccc1` (single isomer, unassigned) [Compound 61], for which the MIC in assay [1] is reported as 39.04 microgram/ml. The molecule also had a pIC50 in the assay on M. Smegmatis ATCC607 of 4.5.

As to `COc1nc2ccc(Br)cc2cc1C(c1ccccc1)C(O)(CN(C)C)c1ccccc1` (single isomer, unassigned) [Compound 62], the MIC in assay [1] came out at 7.79 microgram/ml. Besides, the pIC50 in the assay on M. Smegmatis ATCC607 came out at 5.9.

On to `COc1nc2ccc(Br)cc2cc1C(c1ccccc1)C(O)(CCCN(C)C)c1ccccc1` (single isomer, unassigned) [Compound 63], for which the MIC in assay [1] amounted to 1.64 microgram/ml. The molecule also yielded a pIC50 in the assay on M. Smegmatis ATCC607 of 6.7.

On to `COc1nc2ccc(Br)cc2cc1C(c1ccccc1)C(O)(CCCN(C)C)c1ccccc1` (single isomer, unassigned) [Compound 64], for which, in assay [1], the MIC came to 6.54 microgram/ml. The pIC50 in the assay on M. Smegmatis ATCC607 is 5.8.

`COc1nc2ccc(Br)cc2cc1C(c1ccccc1)C(O)(CCCCN(C)C)c1ccccc1` (single isomer, unassigned) [Compound 65]: the MIC in assay [1] is given as 1.69 microgram/ml. This molecule had a pIC50 in the assay on M. Smegmatis ATCC607 of 5.7.

For `COc1nc2ccc(Br)cc2cc1C(c1ccccc1)C(O)(CCCCN(C)C)c1ccccc1` (single isomer, unassigned) [Compound 66], the MIC in assay [1] worked out at 1.69 microgram/ml. Further, the pIC50 with M. Smegmatis ATCC607 is listed as 4.7.

As for `COc1nc2ccc(Br)cc2cc1C(c1ccccc1)C(O)(CCc1ccccc1)CCN(C)C` (single isomer, unassigned) [Compound 96], the MIC in assay [1] is 21.24 microgram/ml. The molecule further came in with a pIC50 with M. Smegmatis ATCC607 of 6.2.

Molecule `COc1ccc2nc(OC)c(C(c3ccccc3)C(O)(CCN(C)C)c3cccc4ccccc34)cc2c1` (single isomer, unassigned) [Compound 97] gave an MIC in assay [1] of 20.17 microgram/ml. This molecule gave a pIC50 in the assay on M. Smegmatis ATCC607 of 5.9.

With `COc1ccc2nc(OC)c(C(c3ccccc3)C(O)(CCN(C)C)c3cccc4ccccc34)cc2c1` (single isomer, unassigned) [Compound 98], the MIC in assay [1] worked out at 0.51 microgram/ml. Besides, the negative-log IC50 (pIC50) in the assay with M. Smegmatis ATCC607 came out at 7.9.

As for `COc1nc2ccc(Br)cc2cc1C(c1ccccc1)C(O)(CC[N+](C)(C)[O-])c1cccc2ccccc12` (single isomer, unassigned) [Compound 100], in assay [1], the MIC is listed as 45.40 microgram/ml. This molecule displayed a pIC50 with M. Smegmatis ATCC607 of 7.1.

With `COc1nc2ccc(Br)cc2cc1C(c1ccccc1)C(O)(CC[N+](C)(C)C)c1cccc2ccccc12.[I-]` (single isomer, unassigned) [Compound 102], the MIC in assay [1] came out at 2.21 microgram/ml. For the same molecule, the negative-log IC50 (pIC50) in the assay with M. Smegmatis ATCC607 was 6.5.

Turning to `CN(C)CCC(O)(c1ccccc1)C(c1ccccc1)c1cc2cc(Br)ccc2n(C)c1=O` (single isomer, unassigned) [Compound 106], in assay [1], the MIC is recorded as 55.55 microgram/ml. Also, the pIC50 in the assay on M. Smegmatis ATCC607 is 6.2.

Turning to `CN(C)CCC(O)(c1ccccc1)C(c1ccccc1)c1cc2cc(Br)ccc2n(C)c1=O` (single isomer, unassigned) [Compound 107], the MIC in assay [1] is 44.13 microgram/ml. In the assay on M. Smegmatis ATCC607, this molecule showed a pIC50 of 5.8.

For `COc1nc2ccc(Cl)cc2cc1C(c1ccccc1)C(O)(CCN(C)C)c1cccc2ccccc12` (single isomer, unassigned) [Compound 119], the MIC in assay [1] turned out to be 10.20 microgram/ml. Moreover, in the assay with M. Smegmatis ATCC607, the pIC50 was 7.8.

`COc1nc2ccc(Cl)cc2cc1C(c1ccccc1)C(O)(CCN(C)C)c1cccc2ccccc12` (single isomer, unassigned) [Compound 120]: the MIC in assay [1] was determined as 40.60 microgram/ml. Besides, in the assay on M. Smegmatis ATCC607, the pIC50 was 5.9.

In turn, `COc1nc2ccc(Br)cc2cc1C(c1ccccc1)C(O)(CC[N+](C)(C)C)c1cccc2ccccc12.[I-]` (single isomer, unassigned) [Compound 121] displayed an MIC in assay [1] of 2.21 microgram/ml. Also, the pIC50 in the assay on M. Smegmatis ATCC607 came to 5.9.

These data come from patent US7498343B2, “Mycobacterial inhibitors” (priority 2002, dated 2009).
